pIC50: −log10 of the molar value.
Assays:
Type in all cases: cell-based
MOLM-13 = test: Antiproliferative activity against tumor cells (CCK8), MOLM-13; details: Homo sapiens, MOLM-13 cells, 72 hours
Method: (§1) U937, MOLM-13, and MV4-11 cells (ATCC) in the logarithmic growth phase were separately diluted in a culture medium and plated onto 96-well plates at 5000 cells/well, and the plates were incubated in an incubator at 37 °C with 5% CO2 for 24 hours. 10 mM stock solutions of the compounds in DMSO were prepared and diluted with the culture medium to set 9 concentration gradients. Three replicate wells were set for each concentration. After compound addition, the plates were incubated in an incubator at 37 °C with 5% CO2 for 72 hours. The cell proliferation was assessed using the CCK8 method. The cell growth inhibition IC50 values of the compounds were determined using an enzyme labeling method. The IC50 values were calculated using GraphPad Prism 7 software.
(§2) The antiproliferative activity of the compounds against the tumor cells is shown in Table 3, where A represents IC50 < 1 nM, B represents 1 ≤ IC50 < 10 nM, C represents 10 nM ≤ IC50 < 100 nM, D represents 100 nM ≤ IC50 < 1000 nM, and E represents IC50 ≥ 1000 nM. Table 3. The antiproliferative activity of compounds against tumor cells

KG-1 cells = test: Antiproliferative activity against KG-1 cells (CCK8); details: Homo sapiens, 72 hours
Method: KG-1 cells in the logarithmic growth phase were diluted in a culture medium (RPMI + 10% FBS) and plated onto 96-well plates at 5000 cells/well, and the plates were incubated in an incubator at 37 °C with 5% CO2 for 24 hours. 10 mM stock solutions of the test compounds of the present disclosure in DMSO were prepared and diluted with the culture medium to set 9 concentration gradients. Three replicate wells were set for each concentration. After compound addition, the plates were incubated in an incubator at 37 °C with 5% CO2 for 72 hours. The cell proliferation was assessed using the CCK8 method. The cell growth inhibition IC50 values of the compounds were determined using an enzyme labeling method. The IC50 values were calculated using GraphPad Prism 7 software.
as §2, with “KG-1” for “the tumor”, “2,” for “3,”, “2.” for “3.”, “KG-1” for “tumor”

U937 = test: Antiproliferative activity against tumor cells (CCK8), U937; details: Homo sapiens, U-937, 72 hours
Method: as §1, §2

GSPT1 protein = target: T1, GSPT1 protein (Homo sapiens, UniProt P15170+Q96SW2); test: Degradation of GSPT1 in KG-1 cells (Western blot); design: percent GSPT1 degradation: dose or concentration left out as unconfirmed; details: for percent GSPT1 degradation at 0.2 µM: KG-1 cells, compound concentration 200 nM, 4 hours
T1 construct: host or cells: KG-1 cells
T1 sequence (P15170 whole entry): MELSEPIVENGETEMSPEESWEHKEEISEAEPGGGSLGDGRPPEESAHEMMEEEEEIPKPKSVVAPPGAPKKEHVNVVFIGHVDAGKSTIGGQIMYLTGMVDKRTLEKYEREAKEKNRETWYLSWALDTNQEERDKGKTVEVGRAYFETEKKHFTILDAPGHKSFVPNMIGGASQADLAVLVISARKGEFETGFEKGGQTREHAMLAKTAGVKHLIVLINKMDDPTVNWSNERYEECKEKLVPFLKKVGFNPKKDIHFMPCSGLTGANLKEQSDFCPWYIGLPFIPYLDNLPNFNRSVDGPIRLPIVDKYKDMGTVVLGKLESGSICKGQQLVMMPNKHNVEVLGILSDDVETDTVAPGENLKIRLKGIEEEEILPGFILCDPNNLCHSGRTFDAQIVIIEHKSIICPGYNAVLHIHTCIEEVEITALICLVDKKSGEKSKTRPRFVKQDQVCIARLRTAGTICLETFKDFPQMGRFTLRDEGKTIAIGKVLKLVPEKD
T1 sequence (Q96SW2 whole entry): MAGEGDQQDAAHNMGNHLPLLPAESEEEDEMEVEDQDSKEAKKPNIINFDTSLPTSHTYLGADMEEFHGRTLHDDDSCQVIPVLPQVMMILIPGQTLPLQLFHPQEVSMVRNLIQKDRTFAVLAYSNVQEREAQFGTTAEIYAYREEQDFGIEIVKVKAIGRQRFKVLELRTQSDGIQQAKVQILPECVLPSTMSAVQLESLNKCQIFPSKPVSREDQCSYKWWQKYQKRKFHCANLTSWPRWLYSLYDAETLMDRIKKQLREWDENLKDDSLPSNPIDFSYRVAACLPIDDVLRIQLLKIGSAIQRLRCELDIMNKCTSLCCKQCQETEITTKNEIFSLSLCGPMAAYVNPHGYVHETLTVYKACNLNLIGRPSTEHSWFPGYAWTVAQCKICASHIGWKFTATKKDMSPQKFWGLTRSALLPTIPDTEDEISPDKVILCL
T1 sequence (Q16531 whole entry partner): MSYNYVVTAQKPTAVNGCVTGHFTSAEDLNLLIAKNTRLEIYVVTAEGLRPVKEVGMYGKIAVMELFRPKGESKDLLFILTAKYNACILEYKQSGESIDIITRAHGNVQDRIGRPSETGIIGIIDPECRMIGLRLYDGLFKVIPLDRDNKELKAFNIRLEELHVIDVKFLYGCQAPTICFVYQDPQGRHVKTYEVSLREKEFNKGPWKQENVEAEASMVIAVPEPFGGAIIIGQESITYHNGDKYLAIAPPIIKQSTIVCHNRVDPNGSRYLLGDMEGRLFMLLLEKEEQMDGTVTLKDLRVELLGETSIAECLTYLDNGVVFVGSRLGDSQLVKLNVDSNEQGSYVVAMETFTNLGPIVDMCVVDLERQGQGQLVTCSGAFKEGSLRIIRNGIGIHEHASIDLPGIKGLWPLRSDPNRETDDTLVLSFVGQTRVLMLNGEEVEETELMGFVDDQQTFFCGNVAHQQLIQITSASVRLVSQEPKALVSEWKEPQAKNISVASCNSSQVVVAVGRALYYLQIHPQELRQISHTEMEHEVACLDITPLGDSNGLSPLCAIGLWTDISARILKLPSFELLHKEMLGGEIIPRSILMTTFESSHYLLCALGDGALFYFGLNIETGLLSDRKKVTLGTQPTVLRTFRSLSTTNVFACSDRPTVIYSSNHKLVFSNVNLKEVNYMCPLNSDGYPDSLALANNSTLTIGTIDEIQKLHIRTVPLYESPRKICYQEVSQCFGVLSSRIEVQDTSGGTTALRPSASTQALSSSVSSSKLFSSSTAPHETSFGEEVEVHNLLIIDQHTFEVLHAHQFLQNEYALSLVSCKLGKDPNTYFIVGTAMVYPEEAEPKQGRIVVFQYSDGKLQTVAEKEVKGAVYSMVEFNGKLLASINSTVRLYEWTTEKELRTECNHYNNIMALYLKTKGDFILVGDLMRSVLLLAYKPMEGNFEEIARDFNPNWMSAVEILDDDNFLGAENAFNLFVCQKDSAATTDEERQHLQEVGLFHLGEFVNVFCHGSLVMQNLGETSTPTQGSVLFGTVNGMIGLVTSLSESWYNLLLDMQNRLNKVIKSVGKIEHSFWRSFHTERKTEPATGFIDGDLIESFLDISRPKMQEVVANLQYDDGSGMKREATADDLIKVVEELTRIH
Method: KG-1 cells (ATCC) were grown in an IMDM culture medium (containing 20% FBS). After centrifugation and counting, the cell concentration was adjusted. The cells were plated onto 6-well plates at 10^6 cells/well, with 1350 µL per well. 150 µL of DMSO and the test compounds of the present disclosure (compound concentration: 200 nM) were added. The plates were incubated in an incubator at 37 °C with 5% CO2 for 4 hours. The cells were centrifuged, and the culture medium was discarded. PBS was added to wash the cells and then discarded. Whole cell lysates were prepared using a protease inhibitor cocktail (100×, Fude Biological), a protein phosphatase inhibitor cocktail (100×, Fude Biological), SuperNuclease (Beyotime), and a high-intensity RIPA lysis buffer (Thermo Fisher) and placed on ice for 30 minutes. After centrifugation, the cell debris precipitates were discarded, and the whole cell lysate supernatants were collected and transferred to new centrifuge tubes. After a BCA protein assay, samples were prepared using a 5× loading buffer (Thermo Fisher). The samples were subjected to protein electrophoresis separation in a 4-20% precast gel (SDS-PAGE gel), transferred to a PVDF membrane, then blocked with 5% NFDM/TBST at room temperature for 1 hour, incubated overnight with primary antibodies at 4 °C, and incubated with a secondary antibody at room temperature for 2 hours the next day. Signals were detected using a MINICHEMITM imaging system.
Primary antibodies: • Anti-GSPT1: Abcam ab234433 • Anti-beta actin: Fude Biological FD0060
Secondary antibody: Anti-rabbit peroxidase-linked secondary antibody: Fude Biological FDG007
The degradation effects of the compounds on GSPT1 protein are shown in Table 1, where A represents a GSPT1 protein degradation percentage of no less than 80%, B represents a degradation percentage of less than 80% but no less than 50%, C represents a degradation percentage of less than 50% but no less than 25%, and D represents a degradation percentage of less than 25%. Table 1. The degradation of GSPT1 protein by compounds

MV4-11 = test: Antiproliferative activity against tumor cells (CCK8), MV4-11; details: Homo sapiens, MV4-11 cells, 72 hours
Method: as §1, §2

Compound | pIC50 (MOLM-13) | pIC50 (KG-1 cells) | pIC50 (U937) | percent GSPT1 degradation at 0.2 µM (GSPT1 protein) [%] | pIC50 (MV4-11) | percent GSPT1 degradation (GSPT1 protein; KG-1, 4 h, read-out: GSPT1 degradation) [%]
O=C1CCC(N2Cc3cc(CNC(=O)C4CCc5ccccc5C4)ccc3C2=O)C(=O)N1 [Compound D-1, N-((2-(2,6-Dioxopiperidin-3-yl)-1-oxoisoindolin-5-yl)methyl)-1,2,3,4-tetrahydronaphthalene-2-carboxamide] | ≤ 6.00 | ≤ 6.00 | ≤ 6.00 | < 25 | ≤ 6.00 | 
Cc1cccc2c1OCC(C(=O)NCc1ccc3c(c1)CN(C1CCC(=O)NC1=O)C3=O)=C2 (stereo not drawn) [Compound A-21, N-((2-(2,6-Dioxopiperidin-3-yl)-1-oxoisoindolin-5-yl)methyl)-8-methyl-2H-chromene-3-carboxamide] |  | 8.00 to 9.00 |  | > 80 |  | 
O=C1CCC(N2Cc3cc(CNC(=O)C4=Cc5ccc(F)cc5OC4)ccc3C2=O)C(=O)N1 (stereo not drawn) [Compound A-4, N-((2-(2,6-Dioxopiperidin-3-yl)-1-oxoisoindolin-5-yl)methyl)-7-fluoro-2H-chromene-3-carboxamide] |  | 7.00 to 8.00 |  | 50 to 80 |  | 
CN(C)c1ccc2c(c1)C=C(C(=O)NCc1ccc3c(c1)CN(C1CCC(=O)NC1=O)C3=O)CO2 (stereo not drawn) [Compound A-13, N-((2-(2,6-Dioxopiperidin-3-yl)-1-oxoisoindolin-5-yl)methyl)-6-(dimethylamino)-2H-chromene-3-carboxamide] |  | 7.00 to 8.00 |  | 50 to 80 |  | 
O=C1CCC(N2Cc3cc(CNC(=O)C4=Cc5c(F)ccc(F)c5OC4)ccc3C2=O)C(=O)N1 (stereo not drawn) [Compound A-36, N-((2-(2,6-Dioxopiperidin-3-yl)-1-oxoisoindolin-5-yl)methyl)-5,8-difluoro-2H-chromene-3-carboxamide] |  | 8.00 to 9.00 |  | > 80 |  | 
O=C1CCC(N2Cc3cc(CNC(=O)C4CNc5ccccc5C4)ccc3C2=O)C(=O)N1 (stereo not drawn) [Compound C-1, N-((2-(2,6-Dioxopiperidin-3-yl)-1-oxoisoindolin-5-yl)methyl)-1,2,3,4-tetrahydroquinoline-3-carboxamide] | 7.00 to 8.00 | 8.00 to 9.00 | 7.00 to 8.00 | > 80 | 7.00 to 8.00 | 
O=C1CCC(N2Cc3cc(CNC(=O)C4=Cc5ccc(F)c(F)c5OC4)ccc3C2=O)C(=O)N1 (stereo not drawn) [Compound A-32, N-((2-(2,6-Dioxopiperidin-3-yl)-1-oxoisoindolin-5-yl)methyl)-7,8-difluoro-2H-chromene-3-carboxamide] |  | 8.00 to 9.00 |  | > 80 |  | 
O=C1CCC(N2Cc3cc(CNC(=O)C4COc5ccc(Cl)cc5C4)ccc3C2=O)C(=O)N1 (stereo not drawn) [Compound B-3, N-((2-(2,6-Dioxopiperidin-3-yl)-1-oxoisoindolin-5-yl)methyl)-6-chlorochromane-3-carboxamide] |  | 8.00 to 9.00 |  | > 80 |  | 
C=Cc1ccc2c(c1)C=C(C(=O)NCc1ccc3c(c1)CN(C1CCC(=O)NC1=O)C3=O)CO2 (stereo not drawn) [Compound A-14, N-((2-(2,6-Dioxopiperidin-3-yl)-1-oxoisoindolin-5-yl)methyl)-6-vinyl-2H-chromene-3-carboxamide] |  | 7.00 to 8.00 |  | 50 to 80 |  | 
O=C1CCC(N2Cc3cc(CNC(=O)C4=Cc5cc(F)c(F)cc5OC4)ccc3C2=O)C(=O)N1 (stereo not drawn) [Compound A-35, N-((2-(2,6-Dioxopiperidin-3-yl)-1-oxoisoindolin-5-yl)methyl)-6,7-difluoro-2H-chromene-3-carboxamide] |  | 7.00 to 8.00 |  |  |  | > 80
Cc1ccc2c(c1)C=C(C(=O)NCc1ccc3c(c1)CN(C1CCC(=O)NC1=O)C3=O)CO2 (stereo not drawn) [Compound A-7, N-((2-(2,6-Dioxopiperidin-3-yl)-1-oxoisoindolin-5-yl)methyl)-6-methyl-2H-chromene-3-carboxamide] |  | 8.00 to 9.00 |  | > 80 |  | 
O=C1CCC(N2Cc3cc(CNC(=O)C4=Cc5cccc(C(F)(F)F)c5OC4)ccc3C2=O)C(=O)N1 (stereo not drawn) [Compound A-18, N-((2-(2,6-Dioxopiperidin-3-yl)-1-oxoisoindolin-5-yl)methyl)-8-trifluoromethyl-2H-chromene-3-carboxamide] |  | > 9.00 |  | > 80 |  | 
COc1cccc2c1C=C(C(=O)NCc1ccc3c(c1)CN(C1CCC(=O)NC1=O)C3=O)CO2 (stereo not drawn) [Compound A-9, N-((2-(2,6-Dioxopiperidin-3-yl)-1-oxoisoindolin-5-yl)methyl)-5-methoxy-2H-chromene-3-carboxamide] |  | 8.00 to 9.00 |  | > 80 |  | 
O=C1CCC(N2Cc3cc(CNC(=O)C4=Cc5c(F)cccc5OC4)ccc3C2=O)C(=O)N1 (stereo not drawn) [Compound A-2, N-((2-(2,6-Dioxopiperidin-3-yl)-1-oxoisoindolin-5-yl)methyl)-5-fluoro-2H-chromene-3-carboxamide] |  | 7.00 to 8.00 |  | > 80 |  | 
O=C1CCC(N2Cc3cc(CNC(=O)C4=Cc5cccc(F)c5OC4)ccc3C2=O)C(=O)N1 (stereo not drawn) [Compound A-5, N-((2-(2,6-Dioxopiperidin-3-yl)-1-oxoisoindolin-5-yl)methyl)-8-fluoro-2H-chromene-3-carboxamide] |  | 8.00 to 9.00 |  | > 80 |  | 
CC(C)(C)c1ccc2c(c1)C=C(C(=O)NCc1ccc3c(c1)CN(C1CCC(=O)NC1=O)C3=O)CO2 (stereo not drawn) [Compound A-16, N-((2-(2,6-Dioxopiperidin-3-yl)-1-oxoisoindolin-5-yl)methyl)-6-tert-butyl-2H-chromene-3-carboxamide] |  | 7.00 to 8.00 |  | 50 to 80 |  | 
Cc1cc2c(cc1F)OCC(C(=O)NCc1ccc3c(c1)CN(C1CCC(=O)NC1=O)C3=O)=C2 (stereo not drawn) [Compound A-30, N-((2-(2,6-Dioxopiperidin-3-yl)-1-oxoisoindolin-5-yl)methyl)-7-fluoro-6-methyl-2H-chromene-3-carboxamide] |  | 7.00 to 8.00 |  | > 80 |  | 
Nc1ccc2c(c1)C=C(C(=O)NCc1ccc3c(c1)CN(C1CCC(=O)NC1=O)C3=O)CO2 (stereo not drawn) [Compound A-12, N-((2-(2,6-Dioxopiperidin-3-yl)-1-oxoisoindolin-5-yl)methyl)-6-amino-2H-chromene-3-carboxamide] |  | 7.00 to 8.00 |  | > 80 |  | 
O=C1CCC(N2Cc3cc(CNC(=O)C4=Cc5cc(NC(=O)CO)ccc5OC4)ccc3C2=O)C(=O)N1 (stereo not drawn) [Compound A-25, N-((2-(2,6-Dioxopiperidin-3-yl)-1-oxoisoindolin-5-yl)methyl)-6-(2-hydroxyacetamido)-2H-chromene-3-carboxamide] |  | ≤ 6.00 |  | 25 to 50 |  | 
N#Cc1ccc2c(c1)C=C(C(=O)NCc1ccc3c(c1)CN(C1CCC(=O)NC1=O)C3=O)CO2 (stereo not drawn) [Compound A-11, N-((2-(2,6-Dioxopiperidin-3-yl)-1-oxoisoindolin-5-yl)methyl)-6-cyano-2H-chromene-3-carboxamide] |  | 7.00 to 8.00 |  | > 80 |  | 
O=C1CCC(N2Cc3cc(CNC(=O)C4=Cc5cc(F)cc(F)c5OC4)ccc3C2=O)C(=O)N1 (stereo not drawn) [Compound A-33, N-((2-(2,6-Dioxopiperidin-3-yl)-1-oxoisoindolin-5-yl)methyl)-6,8-difluoro-2H-chromene-3-carboxamide] |  | 8.00 to 9.00 |  | > 80 |  | 
